From the NIST ThermoML archive (doi:10.1021/acs.jced.6b00092)
Numbers after ± are expanded uncertainties.

Tests used:
[1] = refractive index (Na D-line) (dimensionless); settings: 298.15 K; 101.33 kPa; Liquid; Standard Abbe refractometry
[2] = Liquid; for mass density: 298.15 K, 101.33 kPa, Vibrating tube method; for vapor or sublimation pressure / Normal boiling temperature: Ebulliometric method (Recirculating still)

| SMILES | refractive index [1] | mass density [2] | vapor or sublimation pressure ([2]; 473.44 K) | vapor or sublimation pressure ([2]; 485.11 K) | vapor or sublimation pressure ([2]; 493.78 K) | Normal boiling temperature [2] | vapor or sublimation pressure ([2]; 442.09 K) | vapor or sublimation pressure ([2]; 453.84 K) | vapor or sublimation pressure ([2]; 462.67 K) | vapor or sublimation pressure ([2]; 379.01 K) | vapor or sublimation pressure ([2]; 389.52 K) | vapor or sublimation pressure ([2]; 397.48 K) |
| --- | --- | --- | --- | --- | --- | --- | --- | --- | --- | --- | --- | --- |
| OCCCCO [1,4-butanediol] | 1.4447 ± 0.0004 | 1012.96 ± 10 kg/m3 | 40 ± 7 kPa | 60 ± 8 kPa | 80 ± 9 kPa | 227.93 ± 4 °C |  |  |  |  |  |  |
| CC(O)CC(C)(C)O (stereo not drawn) [2-methyl-2,4-pentanediol] | 1.4265 ± 0.0004 | 915.6 ± 10 kg/m3 |  |  |  | 197.30 ± 4 °C | 40 ± 7 kPa | 60 ± 8 kPa | 80 ± 9 kPa |  |  |  |
| CC(C)CCO [3-methylbutan-1-ol] | 1.4055 ± 0.0004 | 807.3 ± 10 kg/m3 |  |  |  | 130.70 ± 4 °C |  |  |  | 40 ± 8 kPa | 60 ± 12 kPa | 80 ± 16 kPa |
